Experimental findings from patent US9975854B2, “Benzomorphan analogs and use thereof” (Purdue Pharma L.P., priority 2014, dated 2018) are described below.

The target in this experiment is μ-opioid receptor (Homo sapiens (Human), UniProt P35372). The experiment can be described thus: μ-opioid receptor [35S]GTPγS functional assay, HEK-293 or CHO cells. It counts as biochemical. The conditions noted are these: for Emax: relative to DAMGO. How it is done:
[^35S]GTPγS functional assays were conducted using freshly thawed μ-receptor membranes prepared in-house from a cell line expressing recombinant opioid receptor in a HEK-293, CHO or U-2 OS cell background, or purchased from a commercial source (Perkin Elmer, Shelton, Conn.; or DiscovRx, Fremont, Calif.). Assay reactions were prepared by sequentially adding the following reagents to binding buffer (100 mM NaCl, 10 mM MgCl2, 20 mM HEPES, pH 7.4) on ice (final concentrations indicated): membrane protein (0.026 mg/mL), saponin ([…]), GDP ([…]) and [^35S]GTPγS (0.20 nM; Perkin Elmer, Shelton, Conn.). The prepared membrane solution (190 μl/well) was transferred to 96-shallow well polypropylene plates containing 10 μl of 20× concentrated stock solutions of the agonist [D-Ala^2, N-methyl-Phe^4 Gly-ol^5]-enkephalin (DAMGO) prepared in dimethyl sulfoxide (DMSO). Plates were incubated for 30 min at about 25° C. with shaking. Reactions were terminated by rapid filtration onto 96-well Unifilter GF/B filter plates (Perkin Elmer, Shelton, Conn.) using a 96-well tissue harvester (Perkin Elmer, Shelton, Conn.) followed by three filtration washes with 200 μl of ice-cold wash buffer (10 mM NaH2PO4, 10 mM Na2HPO4, pH 7.4). Filter plates were subsequently dried at 50° C. for 2-3 hr. BetaScint scintillation cocktail (Perkin Elmer, Shelton, Conn.) was added (50 μl/well) and plates were counted using a Packard Top-Count for 1 min/well. Data were analyzed using the sigmoidal dose-response curve fitting functions in GraphPad PRISM v. 3.0, or an in-house function for non-linear, sigmoidal dose-response curve-fitting.
μ GTP EC50 is the concentration of a compound providing 50% of the maximal response for the compound at a μ-opioid receptor.
μ GTP Emax (%) is the maximal effect elicited by a compound relative to the effect elicited by DAMGO, a standard p agonist. Generally, the μ GTP Emax (%) value measures the efficacy of a compound to treat or prevent pain or other Conditions.
In TABLE 4, activity response of certain Compounds of the Invention to the μ- and κ-opioid receptors was determined as described above for functional assays using HEK-293 or CHO cells.

The mark [1] stands for this setting: HEK-293 or CHO cells, bound given in uM, read-out: GTPγS μ EC50.
Where [2] appears, read: HEK-293 or CHO cells, read-out: GTPγS μ EC50.

Structures are written as SMILES. Like-named read-outs stand apart in the source and are kept apart here.

Take `CN1CCC2(C)c3cc(O)ccc3C[C@@H]1C2NC(=O)CCC(=O)Nc1ccc(F)cc1F` (stereo in doubt) [Compound 34, N^1-(2,4-difluorophenyl)-N^4-((2R,6S,11S)-8-hydroxy-3,6-dimethyl-1,2,3,4,5,6-hexahydro-2,6-methanobenzo[d]azocin-11-yl)succinamide]: under setting [1], the EC50 is > 20 µM. Also, under “HEK-293 or CHO cells”, the Emax turned out to be 2.67 ± 0.33%.

For `CN1CC[C@@]2(C)c3cc(O)ccc3C[C@@H]1[C@H]2NC(=O)Nc1nc2cc(F)ccc2s1` [Compound 122, 1-(5-Fluorobenzo[d]thiazol-2-yl)-3-((2R,6S,11S)-8-hydroxy-3,6-dimethyl-1,2,3,4,5,6-hexahydro-2,6-methanobenzo[d]azocin-11-yl)urea], the EC50 under setting [2] is 0.375 ± 0.106 µM. Also, where the note is “HEK-293 or CHO cells”, the Emax was 13.6 ± 1.14%.

`CN1CC[C@@]2(C)c3cc(C(N)=O)ccc3C[C@@H]1[C@H]2NCCc1ccccc1` [Compound 115, (2R,6S,11S)-3,6-dimethyl-11-(phenethylamino)-1,2,3,4,5,6-hexahydro-2,6-methanobenzo[d]azocine-8-carboxamide]: the EC50 under setting [2] was determined as 0.525 ± 0.0263 µM. For the setting “HEK-293 or CHO cells”, the Emax worked out at 83.4 ± 1.58%.

For `CN1CC[C@@]2(C)c3cc(O)ccc3C[C@@H]1[C@@H]2N(C)CC(=O)Nc1ccc(C(F)(F)F)cc1` [Compound 41, 2-(((2R,6S,11R)-8-hydroxy-3,6-dimethyl-1,2,3,4,5,6-hexahydro-2,6-methanobenzo[d]azocin-11-yl)(methyl)amino)-N-(4-(trifluoromethyl)phenyl)acetamide], under setting [1], the EC50 is > 20 µM. For the same molecule, under “HEK-293 or CHO cells”, the Emax amounted to 5.33 ± 1.45%.

For `CN1CC[C@@]2(C)c3cc(C(N)=O)ccc3C[C@@H]1[C@@H]2NCCc1ccccc1` [Compound 114, (2R,6S,11R)-3,6-dimethyl-11-(phenethylamino)-1,2,3,4,5,6-hexahydro-2,6-methanobenzo[d]azocine-8-carboxamide], the EC50 under setting [2] came out at 8.62 ± 0.751 µM. Moreover, the Emax (HEK-293 or CHO cells) came out at 71 ± 2.18%.

For the molecule `CN1CC[C@@]2(C)c3cc(O)ccc3C[C@@H]1[C@H]2NCCCCNC(=O)OC(C)(C)C` [Compound 19, Tert-butyl (4-(((2R,6S,11S)-8-hydroxy-3,6-dimethyl-1,2,3,4,5,6-hexahydro-2,6-methanobenzo[d]azocin-11-yl)amino)butyl)carbamate], the EC50 under setting [1] was > 20 µM. Moreover, the Emax (HEK-293 or CHO cells) amounted to 0%.

As for `CN1CC[C@@]2(C)c3cc(C(N)=O)ccc3C[C@@H]1[C@@H]2N(C)C(=O)Cc1ccccc1` [Compound 124, (2R,6S,11R)-3,6-dimethyl-11-(N-methyl-2-phenylacetamido)-1,2,3,4,5,6-hexahydro-2,6-methanobenzo[d]azocine-8-carboxamide], the EC50 under setting [2] came out at 3.54 ± 0.48 µM. In addition, the Emax (HEK-293 or CHO cells) came out at 81.6 ± 3.37%.

Take `CN1CC[C@@]2(C)c3cc(C(N)=O)ccc3C[C@@H]1C2(O)O` [Compound 118, (2R,6S)-11,11-dihydroxy-3,6-dimethyl-1,2,3,4,5,6-hexahydro-2,6-methanobenzo[d]azocine-8-carboxamide]: the EC50 is 17 ± 0.566 µM. For the setting “HEK-293 or CHO cells”, the Emax is 6.56 ± 0.6%.

Regarding `CN1CC[C@@]2(C)c3cc(O)ccc3C[C@@H]1[C@@H]2N(C)CC1CCN(S(=O)(=O)C2CC2)CC1` [Compound 57, (2R,6S,11R)-11-(((1-(cyclopropylsulfonyl)piperidin-4-yl)methyl)(methyl)amino)-3,6-dimethyl-1,2,3,4,5,6-hexahydro-2,6-methanobenzo[d]azocin-8-ol], the EC50 under setting [2] was 0.0905 ± 0.0181 µM. Moreover, the Emax (HEK-293 or CHO cells) was determined as 43 ± 1.53%.

`CN1CC[C@@]2(C)c3cc(O)ccc3C[C@@H]1[C@H]2NCCC1CCCCC1` [Compound 17, (2R,6S,11 S)-11-((2-cyclohexylethyl)amino)-3,6-dimethyl-1,2,3,4,5,6-hexahydro-2,6-methanobenzo[d]azocin-8-ol]: the EC50 under setting [2] came out at 0.0929 ± 0.00079 µM. Also, where the note is “HEK-293 or CHO cells”, the Emax stood at 55.3 ± 4.1%.

Take `CN1CC[C@@]2(C)c3cc(O)ccc3C[C@@H]1[C@@H]2NCC1(O)CCCCC1` [Compound 14, (2R,6S,11R)-11-(((1-hydroxycyclohexyl)methyl)amino)-3,6-dimethyl-1,2,3,4,5,6-hexahydro-2,6-methanobenzo[d]azocin-8-ol]: under setting [2], the EC50 amounted to 8.69 ± 2.27 µM. For the same molecule, for the setting “HEK-293 or CHO cells”, the Emax stood at 15 ± 1.58%.

For the molecule `CN1CC[C@@]2(C)c3cc(C(=O)O)ccc3C[C@@H]1C2(O)O` [Compound 117, (2R,6S)-11,11-dihydroxy-3,6-dimethyl-1,2,3,4,5,6-hexahydro-2,6-methanobenzo[d]azocine-8-carboxylic acid], the EC50 under setting [1] is > 20 µM. The Emax (HEK-293 or CHO cells) was determined as 0%.

Take `CN(CC1CCN(S(=O)(=O)Cc2ccccc2)CC1)C1[C@H]2Cc3ccc(O)cc3C1(C)CCN2C` (stereo in doubt) [Compound 58, (2R,6S,11S)-11-(((1-(benzylsulfonyl)piperidin-4-yl)methyl)(methyl)amino)-3,6-dimethyl-1,2,3,4,5,6-hexahydro-2,6-methanobenzo[d]azocin-8-ol]: the EC50 under setting [2] amounted to 0.0132 ± 0.00071 µM. The Emax (HEK-293 or CHO cells) was 58 ± 7.55%.

For `CCn1c(NC(=O)N(C)[C@H]2[C@H]3Cc4ccc(O)cc4[C@]2(C)CCN3C)nc2ccccc21` [Compound 112, 3-(1-ethyl-1H-benzo[d]imidazol-2-yl)-1-((2R,6S,11R)-8-hydroxy-3,6-dimethyl-1,2,3,4,5,6-hexahydro-2,6-methanobenzo[d]azocin-11-yl)-1-methylurea], the EC50 under setting [2] turned out to be 0.0141 ± 0.00052 µM. Also, the Emax (HEK-293 or CHO cells) stood at 84.2 ± 0.94%.

For the molecule `CN1CC[C@@]2(C)c3cc(C(=O)O)ccc3C[C@@H]1[C@@H]2NCCc1ccc(S(C)(=O)=O)cc1` [Compound 126, (2R,6S,11R)-3,6-dimethyl-11-((4-(methylsulfonyl)phenethyl)amino)-1,2,3,4,5,6-hexahydro-2,6-methanobenzo[d]azocine-8-carboxylic acid], the EC50 under setting [1] is > 20 µM. Under “HEK-293 or CHO cells”, the Emax came out at 18.4 ± 0.3%.

As for `CN1CC[C@@]2(C)c3cc(C(N)=O)ccc3C[C@@H]1[C@H]2N(C)C(=O)Nc1ccc(C#N)cc1` [Compound 120, (2R,6S,11S)-11-(3-(4-cyanophenyl)-1-methylureido)-3,6-dimethyl-1,2,3,4,5,6-hexahydro-2,6-methanobenzo[d]azocine-8-carboxamide], the EC50 under setting [1] was > 20 µM. Moreover, where the note is “HEK-293 or CHO cells”, the Emax was -0.33 ± 0.67%.

In the case of `CN1CC[C@@]2(C)c3cc(O)ccc3C[C@@H]1[C@@H]2N(CCc1ccc(F)cc1)CC(=O)O` [Compound 73, N-(4-fluorophenethyl)-N-((2R,6S,11R)-8-hydroxy-3,6-dimethyl-1,2,3,4,5,6-hexahydro-2,6-methanobenzo[d]azocin-11-yl)glycine], under setting [2], the EC50 is 0.0572 ± 0.0127 µM. Further, the Emax (HEK-293 or CHO cells) was 68.8 ± 1.77%.

For the molecule `CN1CC[C@@]2(C)c3cc(O)ccc3C[C@@H]1[C@@H]2NCCCCNC(=O)OC(C)(C)C` [Compound 18, Tert-butyl (4-(((2R,6S,11R)-8-hydroxy-3,6-dimethyl-1,2,3,4,5,6-hexahydro-2,6-methanobenzo[d]azocin-11-yl)amino)butyl)carbamate], the EC50 under setting [2] was 0.124 ± 0.0183 µM. For the setting “HEK-293 or CHO cells”, the Emax was found to be 48.4 ± 3.28%.

Turning to `CN1CC[C@@]2(C)c3cc(O)ccc3C[C@@H]1[C@H]2NCC1(O)CCCCC1` [Compound 13, (2R,6S,11S)-11-(((1-hydroxycyclohexyl)methyl)amino)-3,6-dimethyl-1,2,3,4,5,6-hexahydro-2,6-methano-benzo[d]azocin-8-ol], under setting [2], the EC50 was determined as 1.07 ± 0.172 µM. Besides, for the setting “HEK-293 or CHO cells”, the Emax came out at 45.7 ± 1.76%.

On to `CN1CC[C@@]2(C)c3cc(C#N)ccc3C[C@@H]1C2(O)O` [Compound 116, (2R,6S)-11,11-dihydroxy-3,6-dimethyl-1,2,3,4,5,6-hexahydro-2,6-methanobenzo[d]azocine-8-carbonitrile], for which the EC50 is > 20 µM. Further, the Emax (HEK-293 or CHO cells) amounted to 0%.

Turning to `CN1CCC2(C)c3cc(O)ccc3C[C@@H]1C2NS(=O)(=O)c1ccccc1` (stereo in doubt) [Compound 102, N-((2R,6S,11S)-8-hydroxy-3,6-dimethyl-1,2,3,4,5,6-hexahydro-2,6-methanobenzo[d]azocin-11-yl)benzenesulfonamide], the EC50 under setting [1] was > 20 µM. The Emax (HEK-293 or CHO cells) was -1%.

With `CN1CC[C@@]2(C)c3cc(C(=O)O)ccc3C[C@@H]1[C@H]2NCCc1ccc(S(C)(=O)=O)cc1` [Compound 125, (2R,6S,11S)-3,6-dimethyl-11-((4-(methylsulfonyl)phenethyl)amino)-1,2,3,4,5,6-hexahydro-2,6-methanobenzo[d]azocine-8-carboxylic acid], under setting [1], the EC50 is > 20 µM. In addition, the Emax (HEK-293 or CHO cells) came to 0%.

As to `CN1CC[C@@]2(C)c3cc(O)ccc3C[C@@H]1[C@H]2NCCc1ccc(S(C)(=O)=O)cc1` [Compound 11, (2R,6S,11S)-3,6-dimethyl-11-((4-(methylsulfonyl)phenethyl)amino)-1,2,3,4,5,6-hexahydro-2,6-methanobenzo[d]azocin-8-ol], the concentration for a half-maximal effect (EC50) under setting [2] stood at 0.0356 ± 0.0059 µM. Besides, for the setting “HEK-293 or CHO cells”, the Emax came out at 16.7 ± 0.33%.
